Values joined by “and” are separate entries in the source; they are usually repeats but may differ in a detail not shown here. Identical values can stand only once.
System: CEM cells
Experiment: Non-targeted LC-MS metabolite profiling: percent [13C6]glucose labeling and relative metabolite levels
Type: cell-based, human
Settings: CEM cells, 12 h following release from G1 arrest, replicates #1-#6
From the text: To further investigate the functions of dCK and ATR at the G1/S transition in CEM cells, a non-targeted liquid chromatography mass spectrometry (LC-MS) assay was used to determine the utilization of labeled [^13C6]glucose and [^13C9,^15N3]deoxycytidine, the main substrates for de novo and salvage nucleotide biosynthesis, respectively. Of the 166 metabolites identified in CEM cells treated with VE-822 and/or dCKi, 105 metabolites found in all four treatment groups contained glucose-derived ^13C atoms. […] These metabolites included intermediates such as rUTP, rCTP and rCDP in the de novo dCTP biosynthesis (Fig. 1d). […] However, several deoxyribonucleotides, including dCTP, were below the limit of detection of the non-targeted LC-MS approach, raising the concern that the sensitivity of this assay is not sufficient to measure the contribution of the salvage pathway or the ratio of de novo and salvage biosynthesis to these pools. To address this problem, a newly developed targeted MS assay was developed (Fig. 1e and Supplementary Fig. 3). In this assay, samples containing either extracted dNTPs or hydrolyzed DNA from labeled cells are separated by LC for detection by a triple quadrupole mass spectrometer using multiple reaction monitoring (LC-MS/MS-MRM). The first (Q1) and third (Q3) quadrupoles function as mass filters, while the second (Q2) quadrupole serves as a collision chamber (Fig. 1e). For instance, to profile the biosynthetic composition of deoxycytidine (dC) derived from hydrolyzed DNA or dCTP, an intact, protonated dC ion is selected in Q1, followed by fragmentation of the glycosidic bond, which releases protonated cytosine in Q2, that is filtered in Q3 and detected to generate an ion chromatogram. The peak areas for the ion chromatograms of salvage [^13C9,^15N3]dC (red trace), de novo [^13C5]dC (black trace, from [^13C6]glucose) and unlabeled dC (gray trace) (Fig. 1e) are used to determine the relative contributions of the de novo and salvage routes both to dCTP pools and to DNA-incorporated dCTP.
Cells were transferred into RPMI-1640 without glucose and supplemented with 10% dialyzed FBS (Gibco) containing the following labeled substrates: precursors for de novo [U-^13C6]glucose (Sigma-Aldrich, 389374) at 11 mM; precursors for purine salvage [U-^13C10,^15N5]dA (Cambridge Isotopes, CIL 3896), [^15N5]dA (Cambridge Isotopes, NLM-3895) and [^15N5]dG (Cambridge Isotopes, NLM-3899) at 5 µM or as indicated; and precursors for pyrimidine salvage: [U-^13C9,^15N3]dC (Silantes, 124603602) and [U-^13C10,^15N2]dT (Cambridge Isotopes, CNLM-3902) at 5 µM and [^15N2]orotate (Cambridge Isotopes, NLM-1048) at indicated concentrations. The cells were incubated for 12 h or as indicated before sample collection and processing. […]
Non-targeted LC-MS metabolic assays. 1 x 10^6 cells were washed with ice-cold 150 mM ammonium acetate twice before adding 1 mL of ice-cold 80% methanol with 10 nM norvaline as an internal standard. After vigorous vortexing, samples were centrifuged at maximum speed, the aqueous layer was transferred to a glass vial and the metabolites were dried under vacuum. Metabolites were resuspended in 50 μL 70% acetonitrile (ACN) and 5 μL of this solution used for the mass spectrometer-based analysis. The analysis was performed on a Q Exactive (Thermo Scientific) in polarity-switching mode with positive voltage 4.0 kV and negative voltage 4.0 kV. The mass spectrometer was coupled to an UltiMate 3000RSLC (Thermo Scientific) UHPLC system. Mobile phase A was 5 mM ammonium acetate (NH4AcO), pH 9.9, B was acetonitrile and the separation achieved on a Luna […] NH2 100 A column (150 × 2.0 mm, Phenomenex). The flow was 200 μL/min, and the gradient ran from 15% A to 95% A in 18 min, followed by an isocratic step for 9 min and re-equilibration for 7 min. Metabolites were detected and quantified as area under the curve based on retention time and accurate mass (≤ 3 p.p.m.) using the TraceFinder 3.1 (Thermo Scientific). Relative amounts of […]

[1] = metabolite 2-HG (C02630), listed as D
[2] = metabolite 2-Oxoadipate (C00322), listed as D
[3] = metabolite 3PG (C00197), listed as D
[4] = metabolite 4-OH-PheLac (C03672), listed as D
[5] = metabolite 5-Oxoproline (C01879), listed as D
[6] = metabolite 5M-adenosine (C00170), listed as D
[7] = metabolite A (C00212), listed as D
[8] = metabolite ADP (C00008), listed as D
[9] = metabolite AMP (C00020), listed as D
[10] = metabolite ATP (C00002), listed as D
[11] = metabolite Ac-carnitine (C02571), listed as D
[12] = metabolite Ac-choline (C01996), listed as D
[13] = metabolite Aconitate (C00417), listed as D
[14] = metabolite Adenine (C00034), listed as D
[15] = metabolite Ala (C00041), listed as D
[16] = metabolite Allantoin (C02350), listed as D
[17] = metabolite Arg (C00062), listed as D

COc1ccc(-c2nc([C@@H](C)Sc3nc(N)cc(N)n3)c(C)s2)cc1OCCNS(C)(=O)=O [dCKi]
Relative level, S7P (listed as D): 0.547 and 0.8 and 1.8 and 0.0379 and 0.143 and 0.5
Relative level, SAM (listed as D): 1.1 and 1.4 (2×) and 0.8 and 0.6 and 0.7
Relative level, Sarc (C00213) (listed as D): 1.2 and 1.0 (2×) and 1.6 and 0.662 and 0.641
Relative level, Ser (C00065) (listed as D): 1.1 and 1.2 and 1.3 and 0.846 and 0.7 and 0.9
Relative level, Shikimate (C00493) (listed as D): 1.3 and 0.7 and 1.0 and 0.649 and 0.9 (2×)
Relative level, Succ (C00042) (listed as D): 1.5 and 0.6 (2×) and 1.3 and 0.374 and 0.633
Relative level, T (C00214) (listed as D): 1.2 and 1.1 and 1.0 and 1.4 and 151.2 and 4.3
Relative level, Thr (C00188) (listed as D): 1.1 and 1.2 and 1.3 and 0.8 and 0.7 and 0.738
Relative level, Thymine (C00178) (listed as D): 1.0 and 1.2 and 1.3 and 0.9 and 0.95 and 1.1
Relative level, Trigonelline (C01004) (listed as D): 1.2 (2×) and 0.847 and 1.1 and 1.5 and 1.0
Relative level, Trp (C00078) (listed as D): 1.1 and 1.4 and 1.7 and 0.9 (2×) and 1.0
Relative level, Tyr (C00082) (listed as D): 1.2 and 1.4 and 1.6 and 0.9 and 0.7 and 0.8
Relative level, Tyramine (C00483) (listed as D): 1.2 (2×) and 1.1 and 0.8 (2×) and 0.7
Relative level, UDP (C00015) (listed as D): 0.742 and 1.3 and 2.0 and 0.235 and 0.464 and 0.9
Relative level, UDP-Glc (C00029) (listed as D): 0.8 and 1.2 and 1.1 and 0.3 and 0.6 (2×)
Relative level, UDP-GlcNAc (C00043) (listed as D): 1.0 and 1.4 and 1.2 and 0.5 and 0.744 and 0.8
Relative level, UMP (C00105) (listed as D): 1.3 and 1.6 and 1.9 and 0.4 and 0.552 and 0.7
Relative level, UTP (C00075) (listed as D): 0.4 and 0.9 and 1.4 and 0.092 and 0.334 and 0.547
Relative level, Uracil (C00106) (listed as D): 1.2 (2×) and 0.9 and 1.0 and 1.3 and 1.9
Relative level, Uric Acid (C00366) (listed as D): 1.5 and 0.155 and 0.646 and 0.6 and 0.362 and 0.421
Relative level, Urocanate (C00785) (listed as D): 2.0 and 0.4 and 0.448 and 1.2 (2×) and 1.0
Relative level, Val (C00183) (listed as D): 1.1 and 1.2 (2×) and 0.9 (2×) and 1.0
Relative level, Vit-C (C00072) (listed as D): 0.9 and 0.181 and 1.3 and 0.0595 and 0.3 and 0.557
Relative level, Xanthine (C00385) (listed as D): 1.7 and 0.5 and 0.6 and 1.1 and 1.5 and 1.2
Glucose labeling, 2-HG [1]: 6.77% and 13.59% and 15.44% and 1.27% and 1.71% and 4.69%
Relative level, 2-HG [1]: 1.0 and 0.9 and 1.5 and 0.5 (2×) and 0.7
Glucose labeling, 2-HIC (metabolite 2-HIC (C03264)): 0.00%
Relative level, 2-HIC (metabolite 2-HIC (C03264), listed as D): 1.2 and 1.1 and 1.4 and 0.9 and 1.3 and 0.8
Glucose labeling, 2-KIC (metabolite 2-KIC (C00233)): 0.00%
Relative level, 2-KIC (metabolite 2-KIC (C00233), listed as D): 1.2 and 0.9 (3×) and 1.1 and 0.8
Glucose labeling, 2-Oxoadipate [2]: 0.00% (5×) and 1.11e-14%
Relative level, 2-Oxoadipate [2]: 0.7 (2×) and 0.646 and 0.742 and 1.0 and 0.9
Glucose labeling, 2-Oxosuccinamate (metabolite 2-Oxosuccinamate (C02362)): 0.0737%
Relative level, 2-Oxosuccinamate (metabolite 2-Oxosuccinamate (C02362), listed as D): 1.2 and 0.465 and 0.6 and 0.528 and 0.8 and 0.469
Glucose labeling, 3PG [3]: 92.31% and 91.58% and 98.25% and 86.75% and 100.00% and 88.16%
Relative level, 3PG [3]: 0.4 and 0.7 and 0.846 and 0.082 and 0.125 and 0.0782
Glucose labeling, 4-OH-PheLac [4]: 0.00% (5×) and -2.22e-14%
Relative level, 4-OH-PheLac [4]: 1.1 and 1.4 and 1.5 and 0.641 and 0.6 and 0.8
Glucose labeling, 5-Oxoproline [5]: 0.92% and 1.40% and 1.07% and 1.03% and 1.24% and 1.22%
Relative level, 5-Oxoproline [5]: 1.1 and 1.2 and 1.5 and 0.853 and 0.9 and 1.0
Glucose labeling, 5M-adenosine [6]: 0.00% (3×) and -2.22e-14% (3×)
Relative level, 5M-adenosine [6]: 1.2 and 1.7 and 1.8 and 0.756 and 0.7 and 1.0
Glucose labeling, A [7]: 0.07% and 0.09% and 0.36% and 0.41% (2×) and 0.34%
Relative level, A [7]: 1.5 and 0.9 (2×) and 1.1 and 0.856 and 0.8
Glucose labeling, ADP [8]: 70.99% and 74.74% and 75.09% and 55.71% and 66.84% and 71.23%
Relative level, ADP [8]: 0.7 and 1.2 and 1.9 and 0.226 and 0.4 and 0.8
Glucose labeling, AMP [9]: 68.04% and 70.86% and 73.23% and 43.50% and 56.58% and 70.44%
Relative level, AMP [9]: 1.2 (2×) and 1.8 and 0.25 and 0.471 and 0.9
Glucose labeling, ATP [10]: 75.87% and 76.55% and 77.60% and 67.61% and 74.40% and 75.12%
Relative level, ATP [10]: 0.38 and 0.9 and 1.3 and 0.117 and 0.3 and 0.6
Glucose labeling, Ac-carnitine [11]: 31.00% and 33.96% and 35.62% and 27.44% and 29.81% and 28.83%
Relative level, Ac-carnitine [11]: 1.1 and 1.3 and 1.2 and 0.7 and 0.756 and 0.8
Glucose labeling, Ac-choline [12]: 0.00451% and 0.00494% and 0.00571% and 0.0058% and 0.0047% and 0.00638%
Relative level, Ac-choline [12]: 0.9 and 1.1 and 1.0 (4×)
Glucose labeling, Aconitate [13]: 32.66% and 37.44% and 42.11% and 17.39% and 31.02% and 28.93%
Relative level, Aconitate [13]: 0.7 and 1.2 and 1.6 and 0.2 and 0.5 and 0.639
Glucose labeling, Adenine [14]: 0.0339% and 2.19% and 0.79% and 0.14% and 0.00469% and 0.21%
Relative level, Adenine [14]: 1.9 and 0.7 and 1.3 (2×) and 3.1 and 1.0
Glucose labeling, Ala [15]: 47.12% and 64.98% and 65.33% and 49.43% and 49.22% and 48.91%
Relative level, Ala [15]: 1.5 and 1.2 and 1.3 and 0.8 (3×)
Glucose labeling, Allantoin [16]: 0.00% (5×) and 1.11e-14%
Relative level, Allantoin [16]: 1.1 and 1.9 and 2.0 and 0.8 and 1.3 and 1.5
Glucose labeling, Arg [17]: 0.0044% and 0.00434% and 0.00388% and 0.00418% and 0.00453% and 0.00424%
Relative level, Arg [17]: 1.0 and 1.3 and 1.5 and 0.749 and 0.7 (2×)
Glucose labeling, Arg-Succ (metabolite Arg-Succ (C03406), listed as D): 7.24% and 12.66% and 11.40% and 7.14% and 3.06% and 7.90%

From paper PMC5556071, “ATR inhibition facilitates targeting of leukemia dependence on convergent nucleotide biosynthetic pathways” (Nature Communications, 2017)
